Broadly, the IC50 is the concentration that gives 50% inhibition.

The experiment relates to bacterial strain LF82 binding to the glycoprotein BSA-(Mannose)3. Kind of experiment: Bacterial Binding Assay (BBA). It is filed as cell-based, Escherichia coli. Conditions: read-out: Bacterial Binding Assay IC50. The text has this:
The purpose of the Bacterial Binding Assay (BBA) is to determine the inhibition activity of selective FimH antagonists on the bacterial strain LF82 binding to the glycoprotein BSA-(Mannose)3.
Below is a list of the Materials used to run the BBA are described below. • 1. LB broth: Supplier: Gibco, #10855 • 2. D-PBS: Supplier: Wisent, #311-425-CL • 3. LB agar plates • 4. 96-well black plate (high binding): Supplier: Costar, #3925 • 5. TopSeal™-A adhesive sealing films; Supplier PerkinElmer, #6005185 • 6. Carbonate-bicarbonate buffer pH 9.6 tablets, Supplier: Medicago, #09-8922-24 • 7. Water, Supplier: Gibco, #15230-162 • 8. Bovine serum albumin (BSA): Supplier: Sigma, #A-7888 • 9. (Man)-3-BSA (α1-3, α1-6 Mannotriose-BSA, 1 mg), V-Labs, #NGP1336, lot#HGDX37-169-1 • 10. Tween 20: Supplier: Sigma, #P9416 • 11. Bright-Glo Luciferase Assay System: Supplier: Promega, #E2610 • 12. LF82/Luciferase strain: Invasive ability of an Escherichia coli strain isolated from the ileal mucosa of a patient with Crohn's disease. Boudeau J, Glasser A L, Masseret E, Joly B, Darfeuille-Michaud A, Infect Immun. 1999, 67(9), 4499-509
Solutions and buffers used to run the BBA are described below. • 1. 0.04M carbonate-bicarbonate buffer (coating buffer) • 2. […] 1 mg of (Man)-3-BSA in 25 mL of water. • 3. 4000 ng/mL BSA • 4. 40 ng/mL BSA • 5. 1 μg/mL BSA-(Man)3: 150 μL of 40 ng/mL BSA-(Man)3+5.85 mL of 40 ng/mL BSA • 6. 0.5 μg/mL BSA-(Man)3 in 0.02M carbonate-bicarbonate buffer. • 7. 20 ng/mL BSA in 0.02M carbonate-bicarbonate buffer • 8. Blocking buffer (2% BSA/DPBS): 1 g of BSA in 50 mL D-PBS • 9. 2× binding buffer (0.2% BSA/D-PBS): 5 mL of blocking buffer+45 mL D-PBS. • 10. Washing buffer (D-PBS/0.01% Tween 20): 10 μL of Tween 20 in 100 mL D-PBS. • 11. 1× Bright-Glo Luciferase substrate:Dilute 1:1 the Bright-Glo Luciferase Assay System with D-PBS The experimental protocol to run the BBA is described below.
Overnight culture of LF82/Luciferase strain: Into two Falcon 50 mL tubes, add 20 mL of LB+20 μL of 50 mg/mL Kanamycin and inoculate with a loop from glycerol stock of the LF82/Luciferase strain. Incubate overnight at 37° C. with no shaking.
Glycoprotein coating of 96-well plates: Add 100 μL/well of 0.5-2 μg/mL BSA-(Man)3. 20 μg/mL BSA is used as the control background. Seal plate using an adhesive sealing film and incubate overnight at room temperature. Wash the 96-well plate three times with 150 μL/well of D-PBS, add 170 μL/well of blocking solution and incubate 45 min (minimum) at room temperature.
Preparation of bacterial suspension: Mix the two cultures tubes (40 mL) and perform a 1:10 dilution in LB (900 μl LB+100 μl culture. Measure optical density (OD) of the bacterial cultures. OD1 ˜5×10^8 cells/mL. Centrifuge LF82 culture for 20 min at 3500 rpm at room temperature. Re-suspend bacterial pellet in D-PBS and centrifuge again for 20 min at 3500 rpm. Re-suspend bacterial pellet in D-PBS to obtain a bacterial concentration of 2×10^9 bacteria/mL. Dilute 1/10 in D-PBS to obtain a final bacterial concentration of 2×10^8 bacteria/mL (=107 bacteria/50 μL). Perform 1/10 serial dilutions in LB of each bacterial suspension, plate 10 μL of dilutions on LB agar plates (final dilutions of 10^−7) and incubate overnight at 37° C. and count CFUs to determine the actual bacteria density in the assay.
Bacterial binding assay: Add 147 μL 2× binding buffer to compound plate (containing 3 μL of compound). After blocking step is performed (at least 45 min), wash plates three times with 200 μL/well of D-PBS. With a 100 μL multichannel manual pipettor, add 50 μL/well of compound diluted in 2× binding buffer. With a 100 μL multichannel manual pipettor, add 50 μL/well of bacterial suspension. Agitate at slow speed for 1 min and incubate 40-75 min at room temperature. Wash 5 times with 150 μL/well of washing buffer and then once with D-PBS. Add 100 μL/well of 1× Bright-Glo Luciferase substrate. […]
`Cc1cc(-c2cccc(C(=O)N[C@@H](CO)C(=O)O)c2)ccc1O[C@H]1O[C@H](CO)[C@@H](O)[C@H](O)[C@]1(C)O` [Compound 69]: the IC50 came to 30 ± 12 nM.
Under `Cc1cc(-c2cccc(C(=O)N3CCCC3)c2)ccc1O[C@H]1O[C@H](CO)[C@@H](O)[C@H](O)[C@]1(C)O` [Compound 70] stands 30 ± 1 nM; under `Cc1cc(-c2cccc(C(=O)N(CCO)C(CO)(CO)CO)c2)ccc1O[C@H]1O[C@H](CO)[C@@H](O)[C@H](O)[C@]1(C)O` [Compound 71], 8 ± 2 nM; under `Cc1cc(-c2cccc(C(=O)N[C@@H](CO)[C@@H](C)O)c2)ccc1O[C@H]1O[C@H](CO)[C@@H](O)[C@H](O)[C@]1(C)O` [Compound 72], 36 ± 9 nM.
As for `CNC(=O)c1cc(F)cc(-c2ccc(O[C@H]3O[C@H](CO)[C@@H](O)[C@H](O)[C@]3(C)O)c(C)c2)c1` [Compound 73], the IC50 is 16 ± 5 nM.
Under `Cc1cc(-c2ccc(F)cc2)ccc1O[C@H]1O[C@H](CO)[C@@H](O)[C@H](O)[C@]1(C)O` [Compound 74] stands 180 ± 40 nM; under `Cc1cc(-c2ccc(F)cc2F)ccc1O[C@H]1O[C@H](CO)[C@@H](O)[C@H](O)[C@]1(C)O` [Compound 75], 38 ± 18 nM.
For `Cc1cc(-c2cc(F)cc(F)c2)ccc1O[C@H]1O[C@H](CO)[C@@H](O)[C@H](O)[C@]1(C)O` [Compound 76], the IC50 was 24 ± 3 nM.
Next, `Cc1cc(-c2cc(Cl)ccc2F)ccc1O[C@H]1O[C@H](CO)[C@@H](O)[C@H](O)[C@]1(C)O` [Compound 77]: 150 nM; `Cc1cc(-c2cc(F)cc(Cl)c2)ccc1O[C@H]1O[C@H](CO)[C@@H](O)[C@H](O)[C@]1(C)O` [Compound 78]: 94 ± 6 nM; `COc1ccc(C#N)cc1-c1ccc(O[C@H]2O[C@H](CO)[C@@H](O)[C@H](O)[C@]2(C)O)c(C)c1` [Compound 79]: 20 ± 5 nM.
Under `COc1cc(Cl)cc(-c2ccc(O[C@H]3O[C@H](CO)[C@@H](O)[C@H](O)[C@]3(C)O)c(C)c2)c1` [Compound 80] stands 55 ± 15 nM; under `COc1cc(Cl)ccc1-c1ccc(O[C@H]2O[C@H](CO)[C@@H](O)[C@H](O)[C@]2(C)O)c(C)c1` [Compound 81], 185 ± 15 nM.
Next, `Cc1cc(-c2ccc(Cl)c(Cl)c2)ccc1O[C@H]1O[C@H](CO)[C@@H](O)[C@H](O)[C@]1(C)O` [Compound 82]: 110 ± 31 nM; `Cc1cc(-c2cccc(C(=O)N(C)C)c2)ccc1O[C@H]1O[C@H](CO)[C@@H](O)[C@H](O)[C@]1(C)O` [Compound 83]: 19 ± 6 nM; `Cc1cc(-c2cccc(S(N)(=O)=O)c2)ccc1O[C@H]1O[C@H](CO)[C@@H](O)[C@H](O)[C@]1(C)O` [Compound 84]: 10 ± 2 nM.
With `Cc1cc(-c2ccc(F)c(C(=O)N3CCCC3)c2)ccc1O[C@H]1O[C@H](CO)[C@@H](O)[C@H](O)[C@]1(C)O` [Compound 85], the IC50 is 30 ± 8 nM.
Under `Cc1cc(-c2cccc(S(=O)(=O)NC(C)(C)C)c2)ccc1O[C@H]1O[C@H](CO)[C@@H](O)[C@H](O)[C@]1(C)O` [Compound 86] stands 26 ± 8 nM; under `Cc1cc(-c2ccc(O[C@H]3O[C@H](CO)[C@@H](O)[C@H](O)[C@]3(C)O)c(C)c2)ccc1F` [Compound 87], 87 ± 33 nM.
For the compound `Cc1cc(-c2ccc(F)c(F)c2)ccc1O[C@H]1O[C@H](CO)[C@@H](O)[C@H](O)[C@]1(C)O` [Compound 88], the IC50 worked out at 2950 ± 150 nM.
Take `Cc1cc(-c2ccc3cc[nH]c3c2)ccc1O[C@H]1O[C@H](CO)[C@@H](O)[C@H](O)[C@]1(C)O` [Compound 89]: the IC50 was determined as 455 ± 95 nM.
Regarding `COc1c(F)cccc1-c1ccc(O[C@H]2O[C@H](CO)[C@@H](O)[C@H](O)[C@]2(C)O)c(C)c1` [Compound 90], the IC50 came to 83 ± 3 nM.
As to `COc1cc(F)ccc1-c1ccc(O[C@H]2O[C@H](CO)[C@@H](O)[C@H](O)[C@]2(C)O)c(C)c1` [Compound 91], the IC50 came out at 92 ± 27 nM.
Regarding `Cc1cc(-c2ccc(F)c(Cl)c2)ccc1O[C@H]1O[C@H](CO)[C@@H](O)[C@H](O)[C@]1(C)O` [Compound 92], the IC50 amounted to 82 ± 15 nM.
Next, `Cc1cc(-c2cccc(Cl)c2F)ccc1O[C@H]1O[C@H](CO)[C@@H](O)[C@H](O)[C@]1(C)O` [Compound 93]: 215 ± 5 nM.
Under `COc1cc(OC)cc(-c2ccc(O[C@H]3O[C@H](CO)[C@@H](O)[C@H](O)[C@]3(C)O)c(C)c2)c1` [Compound 94] stands 16 ± 6 nM.
Under `COc1ccc(OC)c(-c2ccc(O[C@H]3O[C@H](CO)[C@@H](O)[C@H](O)[C@]3(C)O)c(C)c2)c1` [Compound 95] stands 24 ± 12 nM; under `COc1ccc(-c2ccc(O[C@H]3O[C@H](CO)[C@@H](O)[C@H](O)[C@]3(C)O)c(C)c2)cc1Cl` [Compound 96], 20 ± 9 nM; under `COc1ccc(Cl)cc1-c1ccc(O[C@H]2O[C@H](CO)[C@@H](O)[C@H](O)[C@]2(C)O)c(C)c1` [Compound 97], 110 ± 20 nM.
As for `COc1c(F)cc(-c2ccc(O[C@H]3O[C@H](CO)[C@@H](O)[C@H](O)[C@]3(C)O)c(C)c2)cc1F` [Compound 98], the IC50 worked out at 16 ± 7 nM.
In the case of `COc1c(F)cc(F)cc1-c1ccc(O[C@H]2O[C@H](CO)[C@@H](O)[C@H](O)[C@]2(C)O)c(C)c1` [Compound 99], the IC50 came to 38 ± 8 nM.
Next, `COc1cc(Cl)c(Cl)cc1-c1ccc(O[C@H]2O[C@H](CO)[C@@H](O)[C@H](O)[C@]2(C)O)c(C)c1` [Compound 100]: 155 ± 25 nM; `Cc1cc(-c2cc(C#N)ccc2C)ccc1O[C@H]1O[C@H](CO)[C@@H](O)[C@H](O)[C@]1(C)O` [Compound 101]: 1180 ± 215 nM.
Next, `Cc1cc(-c2ccc(F)c(C(=O)N3CCOCC3)c2)ccc1O[C@H]1O[C@H](CO)[C@@H](O)[C@H](O)[C@]1(C)O` [Compound 102]: 24 ± 5 nM.
For `Cc1cc(-c2cc(F)cc(C(=O)N3CCOCC3)c2)ccc1O[C@H]1O[C@H](CO)[C@@H](O)[C@H](O)[C@]1(C)O` [Compound 103], the IC50 came to 18 ± 8 nM.
Under `Cc1cc(-c2ccc(O[C@H]3O[C@H](CO)[C@@H](O)[C@H](O)[C@]3(C)O)c(C)c2)ccc1O` [Compound 104] stands 69 ± 23 nM; under `Cc1cc(-c2ccc(O[C@H]3O[C@H](CO)[C@@H](O)[C@H](O)[C@]3(C)O)c(C)c2)ccc1O[C@H]1O[C@H](CO)[C@@H](O)[C@H](O)[C@]1(C)O` [Compound 105, (2R,3S,4S,5S,6R)-6-(hydroxymethyl)-3-methyl-2-[2-methyl-4-[3-methyl-4-[(2R,3S,4S,5S,6R)-3,4,5-trihydroxy-6-(hydroxymethyl)-3-methyl-tetrahydropyran-2-yl]oxy-phenyl]phenoxy]tetrahydropyran-3,4,5-triol], 6 ± 2 nM.
Under `CNC(=O)c1cccc(-c2ccc(O[C@H]3O[C@H](CO)[C@@H](O)[C@H](O)[C@]3(C)O)cc2)c1` [Example 14, N-methyl-3-[4-[(2R,3S,4S,5S,6R)-3,4,5-trihydroxy-6-(hydroxymethyl)-3-methyl-tetrahydropyran-2-yl]oxyphenyl]benzamide] stands 132 ± 44 nM.
